Measurements from patent US10245262B2, “Immunological reagents and uses therefor” (THE UNIVERSITY OF QUEENSLAND, priority 2014, dated 2019).
Read-outs that look alike come from different tables or passages of the source. Blank lines part the entries; values can stand above or below the compound they belong to.

What was measured:
[1] = test system: Jurkat.MAIT cells; assay: Activation of Jurkat.MAIT cells (CD69 upregulation) co-incubated with C1R.MR1 cells; format: cell-based; details: for Jurkat.MAIT activation compared to 5-A-RU added by itself: compound added with 5-A-RU to C1R.MR1 cells
Experimental: (§1) Jurkat cells transduced with genes encoding a MAIT TCR comprising the TRAV1-2-TRAJ33 invariant α chain, and a TRBV6-1 β chain, or SKW cells transduced with genes encoding the TRAV1-2-TRAJ33 invariant α chain with either w.t. Tyr95 or mutated Tyr95Ala or Tyr95Phe residues, paired with a TRBV6-1 β chain, were tested for activation by co-incubation with bacterial culture supernatant or compounds and C1R antigen presenting cells expressing MR1 (CIR.MR1, with Jurkat.MAIT cells), or C1R cells (SKW.MAIT cells) for 16 hr. Cells were subsequently stained with PE-Cy7-conjugated anti-CD3 (eBioscience), and APC-conjugated anti-CD69 (BD) antibodies as well as biotinylated anti-MR1 mAb 26.5 (Huang S. et al (2005)), followed by Streptavidin-PE (BD), before analysis by flow cytometry. Activation of Jurkat.MAIT or SKW.MAIT cells was measured by an increase in surface CD69 expression. MR1 expression was detected on gated C1R.MR1 cells in the same assay.

[2] = test system: C1R.MR1 cells; assay: Detection of MR1 expression on C1R.MR1 cells (mAb 26.5 staining); format: cell-based; details: for MR1 upregulation compared to 5-A-RU added by itself: compound added with 5-A-RU to C1R.MR1 cells
Experimental: as §1

[3] = test system: SKW.MAIT cells; assay: Activation of wild-type, Y95A or Y95F mutant SKW.MAIT cells with C1R cells; format: cell-based; details: compound added to C1R cells
Text: FIG. 4 is a graph showing MR1-Ag tetramers and MAIT activation. […] (c) EICs of m/z 315.09, or m/z 317.10. (d) (i) Activation assay and (ii) MR1 upregulation with 5-A-RU, methylglyoxal (MG), butane-2,3-dione (BD), glyoxal (G), or rRL-6-CH2OH. MFI of 26.5-PE antibody staining (e) (i) CD69 upregulation and (ii) MR1 upregulation with 5-A-RU, MG, BD, or G. MFI of 26.5-PE. (f) Activation of wild-type, Y95A, or Y95F mutant SKW.MAIT cells by 5-A-RU. Mean of triplicates with SEM. Experiments were performed at least twice (b, c, f) or 3 times (a, d, e).
as §1, with “Cells were subsequently stained with PE-Cy7-conjugated anti-CD3 (eBioscience), and APC-conjugated anti-CD69 (BD) antibodies as well as biotinylated anti-MR1 mAb 26.5 (Huang S. et al (2005)), followed by Streptavidin-PE (BD), before analysis by flow cytometry.” left out

[4] = biological target: T1, human MR1 (Homo sapiens, UniProt Q95460, C283S); assay: Refolding of MR1 and β2m with ligand; format: binding
T1 construct: Soluble human MR1 a.a; made in house

[5] = for half-life: buffer
Experimental: FIG. 7 is a graph showing stability of 5-OP-RU (a) Reaction between 5-A-RU (0.5 mM) and methylglyoxal (3 eq) at pH 6.8, 37° C. in MilliQ water. RL-6-Me represents 6-methyl-8-D-ribityllumazine. (b) Stability of purified 5-OP-RU (65 μM) at pH 6.8 and 37° C. […] (c) Stability of purified 5-OP-RU (65 μM) at variable pH in aqueous TBS buffer (10 mM Tris, 150 mM NaCl, pH 8.0), MilliQ water (pH 6.8), or ammonium acetate buffer (20 mM, pH 5.4) at 15° C.
The purified 5-OP-RU was dissolved in aqueous TBS buffer (10 mM Tris, 150 mM NaCl, pH 8.0), MilliQ water (pH 6.8), or aqueous ammonium acetate buffer (20 mM, pH 5.4). The consumption of 5-OP-RU was immediately monitored by LCMS. The initial concentration was quantified by comparing to a standard solution of known concentration.

[6] = test system: MR1; assay: Crystal structure of MAIT TCR-MR1-Ag complexes; format: binding, human
Experimental: Crystals of the soluble MAIT TCR-MR1-Ag complexes were obtained using the hanging drop vapour diffusion method. The MR1-2M-5-OP-RU, MR1-2M-5-OE-RU, MR1, MR1-K43A-2M-5-OP-RU and MAIT TCR were concentrated to 4 mg/ml, mixed in a 1:1 molar ratio, then […] of a precipitant solution consisting 0.1 M bis-tris propane pH 6.3, 0.2 M sodium acetate and varying concentrations of PEG 3350 between 8-14% w/v. Crystals were observed after incubation at 20° C. for 24 hours in dark conditions and cryoprotected prior to diffraction experiments by soaking in the crystallisation condition modified with between 10-15% v/v glycerol before cooling to 100K. Diffraction images were collected at the Australian Synchrotron MX2 beamline diffracting in a C2 spacegroup to 2.50 Å, 2.10 Å and 2.20 Å for the MR1-2M-5-OP-RU, MR1-2M-5-OE-RU, and MR1-K43A-2M-5-OP-RU complexes with the MAIT TCR respectively. The data were processed using Mosflm version 7.0.9 and scaled using AIMLESS or SCALA (MR1-K43A-2M-5-OP-RU only) from the CCP4 Suite. The phase problem was solved by molecular replacement using PHASER (McCoy A. J. (2007)), using MR1 ternary complex (PDB code 4L4T) (Patel O. et al (2013)) with CDR loops and ligands removed and using the Rfree reflection set from the model. […]

[7] = test system: MAIT cells; assay: MAIT cell accumulation in lungs after intranasal S. Typhimurium infection; format: in vivo, mice; details: with BR509ΔribDH (10^7) i.n.; 200 μl of 1.52 μM i.v. at d1, d3, d5; day 7 post infection
[8] = test system: MR1; details: cited from earlier work
[9] = compound added alone to C1R.MR1 cells

Compound: Cc1cc2nc3c(=O)[nH]c(=O)nc-3n(C[C@H](O)[C@H](O)[C@H](O)CO)c2cc1C [riboflavin]
effect of riboflavin added during culture of NZ9000 on MAIT cell activation by the supernatant ([1]; L. lactis NZ9000 supernatant, 3 μg/ml riboflavin): inhibited MAIT cell activation

MR1-ligand complex on refolding MR1 with the compound alone [4]: undetectable
Compound: Nc1c(NC[C@H](O)[C@H](O)[C@H](O)CO)[nH]c(=O)[nH]c1=O [5-A-RU, 5-amino-6-D-ribitylaminouracil]
activation of Jurkat.MAIT cells [1, 9]: activation of Jurkat.MAIT cells
MR1 cell surface upregulation [2, 9]: MR1 cell surface upregulation
recognition by SKW.MAIT cells with Tyr95α mutated to Ala95 or Phe95 [3]: ablated recognition

stability (in words) [5]: relatively unstable
binding mode in the MR1 cleft [6]: formed a Schiff base with Lys43 of MR1
Compound: O=CC=Nc1c(NC[C@H](O)[C@H](O)[C@H](O)CO)[nH]c(=O)[nH]c1=O [5-OE-RU, 5-(2-oxoethylideneamino)-6-D-ribitylaminouracil]

Compound: CC(=O)C=Nc1c(NC[C@H](O)[C@H](O)[C@H](O)CO)[nH]c(=O)[nH]c1=O [5-OP-RU, 5-(2-oxopropylideneamino)-6-D-ribitylaminouracil]
half-life ([5]; pH 5.4): 49 min
half-life ([5]; pH 6.8): around 2 h
binding mode in the MR1 cleft [6]: formed a Schiff base with Lys43 of MR1
accumulation of MAIT cells in lungs [7]: accumulation is observed

MR1-Ag complex on refolding MR1 in the presence of 5-A-RU and the compound [4]: failed to yield any MR1-Ag complexes
Compound: CC(=O)C(C)=O [butane-2,3-dione]
Jurkat.MAIT activation compared to 5-A-RU added by itself [1]: nor was there an increase in Jurkat.MAIT activation
MR1 upregulation compared to 5-A-RU added by itself [2]: not enhanced

Compound: O=CC=O [glyoxal]
Jurkat.MAIT activation compared to 5-A-RU added by itself [1]: increase in Jurkat.MAIT activation
MR1 upregulation compared to 5-A-RU added by itself [2]: further increase in MR1 upregulation
MR1-Ag complex on refolding MR1 in the presence of 5-A-RU and the compound [4]: led to a correctly folded MR1-Ag complex

Compound: Cc1nc2c(=O)[nH]c(=O)nc-2n(C[C@H](O)[C@H](O)[C@H](O)CO)c1O [RL-6-Me-7-OH, 7-hydroxy-6-methyl-8-D-ribityllumazine]
binding mode in the MR1 cleft [8]: non-covalently bound within MR1

Compound: reduced 6-hydroxymethyl-8-D-ribityllumazine [rRL-6-CH2OH]
recognition by SKW.MAIT cells with Tyr95α mutated to Ala95 or Phe95 [3]: ablated recognition

MR1-Ag complex on refolding MR1 in the presence of 5-A-RU and the compound [4]: led to a correctly folded MR1-Ag complex
Compound: CC(=O)C=O [methylglyoxal]
Jurkat.MAIT activation compared to 5-A-RU added by itself [1]: increase in Jurkat.MAIT activation
MR1 upregulation compared to 5-A-RU added by itself [2]: further increase in MR1 upregulation
